US20110118116A1, “Azolin-2-ylamino Compounds for Combating Animal Pests” (priority 2008, published 2011)

Legend:
Format in all cases: in vivo
[1] = test system: Cowpea Aphid (Aphis craccivora); test: Cowpea aphid test, colonized potted cowpea plants sprayed; settings: spray, population reduction recorded after 24, 72 and 120 hours, read-out: mortality in comparison with untreated controls
Protocol: III. Cowpea Aphid (Aphis craccivora)
(§1) The active compounds were formulated in 50:50 acetone: water and 100 ppm Kinetic® surfactant.
Potted cowpea plants colonized with 100-150 aphids of various stages were sprayed after the pest population has been recorded. Population reduction was recorded after 24, 72, and 120 hours.

[2] = test system: Cotton Aphid (Aphis gossypii); test: Cotton aphid test, cotyledons of infested cotton plants dipped; settings: 120 h, dip, aphid mortality determined after 5 days, read-out: mortality in comparison with untreated controls
Protocol: I. Cotton Aphid (Aphis gossypii)
as §1
(§2) Cotton plants in the cotyledon stage (variety ‘Delta Pine’) are infested with approximately 100 laboratory-reared aphids by placing infested leaf sections on top of the test plants. The leaf sections are removed after 24 hours. The cotyledons of the intact plants are dipped into gradient solutions of the test compound. Aphid mortality on the treated plants, relative to mortality on check plants, is determined after 5 days.

[3] = test system: Silverleaf Whitefly; test: Silverleaf whitefly test, cotton cotyledons dipped, adults introduced; settings: Bemisia argentifolii, 72 h, cotton plants, dip, mortality assessed 3 days after treatment, read-out: mortality in comparison with untreated controls
Protocol: as §1
Selected cotton plants were grown to the cotyledon state (one plant per pot). The cotyledons were dipped into the test solution to provide complete coverage of the foliage and placed in a well-vented area to dry. Each pot with treated seedling was placed in a plastic cup and 10 to 12 whitefly adults (approximately 3-5 day old) were introduced. The insects were colleted using an aspirator and a 0.6 cm, non-toxic Tygon® tubing (R-3603) connected to a barrier pipette tip. The tip, containing the collected insects, was then gently inserted into the soil containing the treated plant, allowing insects to crawl out of the tip to reach the foliage for feeding. The cups were covered with a re-usable screened lid (150 micron mesh polyester screen PeCap from Tetko Inc). Test plants were maintained in the holding room at about 25 °C and 20-40% relative humidity for 3 days avoiding direct exposure to the fluorescent light (24 hour photoperiod) to prevent trapping of heat inside the cup. Mortality was assessed 3 days after treatment of the plants.

[4] = test system: Green Peach Aphid (Myzus persicae); test: Green peach aphid test, leaves of infested pepper plants dipped; settings: 120 h, dip, aphid mortality determined after 5 days, read-out: mortality in comparison with untreated controls
Protocol: II. Green Peach Aphid (Myzus persicae)
as §1
as §2, with “Pepper” for “Cotton”, “2nd leaf-pair” for “cotyledon”, “‘California Wonder’)” for “‘Delta Pine’)”, “40” for “100”, “leaves” for “cotyledons”

Compound | mortality at 300 ppm [1] | mortality at 300 ppm [2] | mortality at 300 ppm [3] | mortality at 300 ppm [4]
Cc1cccc(C#CCC(NC(=S)NCCO)c2cccc(C)c2C)c1 (stereo not drawn) [Example 2, 1-[1-(2,3-dimethyl-phenyl)-4-m-tolyl-but-3-ynyl]-3-(2-hydroxy-ethyl)-thiourea] | > 70% | – | – | –
Cc1cccc(C#CCC(NC2=NCCS2)c2cccc(C)c2C)c1 (stereo not drawn) [Example 13, (4,5-dihydro-thiazol-2-yl)-[1-(2,3-dimethyl-phenyl)-4-m-tolyl-but-3-ynyl]-amine] | > 70% | > 70% | > 70% | > 70%
C#CCC(NC1=NCCS1)c1cccc(C)c1C (stereo not drawn) [Example 14, (4,5-dihydro-thiazol-2-yl)-[1-(2,3-dimethyl-phenyl)-but-3-ynyl]-amine] | > 70% | – | – | –
Cc1cccc(C(CC#Cc2cccc(Cl)c2)NC2=NCCS2)c1C (stereo not drawn) [Example 15, [4-(3-chloro-phenyl)-1-(2,3-dimethyl-phenyl)-but-3-ynyl]-(4,5-dihydro-thiazol-2-yl)-amine] | > 70% | > 70% | – | > 70%
